Legend:
[1] = test system: sheep testicular hyaluronidase; assay: hyaluronidase inhibition (hyaluronic acid hydrolysis); format: biochemical; conditions: 10 minutes preincubation, pH 5.5; inactive = no inhibition at 1 mg/ml
Protocol: Hyaluronidase activity was quantitatively determined by measuring the extent of hyaluronic acid hydrolysis (i.e., the concentration of N-acetylglucosamine-reactive material formed from enzyme activity). Reaction mixtures (0.25 ml) containing the following were prepared: test compound (variable concentration); 0.1 M sodium acetate; 0.15 M sodium chloride; pH adjusted to 5.5; 7.2 units sheep testicular hyaluronidase (Sigma, Type III; H-2251) contained in an acetate buffer; 0.3 mg/ml hyaluronic acid (Sigma, from bovine vitreous humor; H-7630). The enzyme was preincubated with the test agent (1 mg/ml for screening purposes) for 10 minutes before starting the reaction by the addition of hyaluronic acid. The enzyme reaction was determined using the method of Aronson and Davidson (J. Biol. Chem. 241 437-440 (1967)). The reaction mixture was incubated for 30 minutes at room temperature. The reaction product was determined calorimetrically with p-dimethylaminobenzaldehyde (Reissig et al., J. Biol. Chem. 217 959-966 (1965)) by measuring the absorbance at 545 nm.
The reversibility of the hyaluronidase was determined by evaluating enzyme activity at different levels of enzyme (Ackermann and Potter, Proc. Soc. Exp. Biol. Med. 72 1-9 (1949)).

Lactobacillus gasseri = assay: effect on normal vaginal flora (Lactobacillus gasseri growth); format: cell-based; conditions: 0.5 mg/ml
Protocol: This example illustrates the effect of the inhibitory agents of this invention on the normal vaginal flora. Lactobacillus gasseri, which is found in normal vaginal flora, was obtained from the American Type Culture Collection (Rockville, Md.) and cultured under anaerobic conditions at 37° C. in the presence of the desired test agents. Control samples without added test agents were also run. Samples were collected at twenty minute intervals starting at 120 minutes after the start of incubation through 240 minutes. The absorbance at 550 nm was used to estimate the cell density and inhibitory effects. Nonoxynol-9 was also evaluated for comparison purposes.

MT2 cells = assay: cytotoxicity of test compound towards host (MT2) cells; format: cell-based; conditions: at the levels of Example 5
Protocol: Serial dilutions of the test compounds (ranging from 0.1 μg/ml to 1.0 mg/ml) were added to HIV-1 virus such that 50 μl inoculum produced between 70 to 100 syncytia per well in untreated wells containing MT2 cells. The HIV-1 used was strain IIIs propagated in, and harvested from, a T4-lymphobastoid cell line. Each serial dilution of the test compound with virus was placed in each of three wells containing MT2 cells. The test compound alone was added to a fourth well containing MT2 cells to test for possible cytotoxicity. Triplicate virus control samples (no added test compounds but containing the equivalent amounts of the RPMI medium) were also included.

[2] = test system: vaginal/cervical epithelial and other cells; conditions: cited from earlier work

Substance: Nonoxynol-9
- IC50 hyaluronidase [1]: inactive
- inhibition of growth of Lactobacillus gasseri (Lactobacillus gasseri): about 60%
- cytotoxic towards the MT2 cells (MT2 cells): did show cytotoxic effects
- lowest concentration that can injure vaginal/cervical epithelial and other cells [2]: about 0.0005%
